Measured values as given in ChEMBL document CHEMBL1128134, “Characterization of a continuous fluorogenic assay for calpain I. Kinetic evaluation of peptide aldehydes, halomethyl ketones and (acyloxy)methyl ketones as inhibitors of the enzyme” (Bioorg Med Chem Lett, 1995).
Peptide text beside a SMILES is read from it. * marks the point of attachment. Cbz = O=C(OCc1ccccc1)*

T1: Calpain-1 catalytic subunit (Homo sapiens) (UniProt P07384)
T1 sequence (whole entry): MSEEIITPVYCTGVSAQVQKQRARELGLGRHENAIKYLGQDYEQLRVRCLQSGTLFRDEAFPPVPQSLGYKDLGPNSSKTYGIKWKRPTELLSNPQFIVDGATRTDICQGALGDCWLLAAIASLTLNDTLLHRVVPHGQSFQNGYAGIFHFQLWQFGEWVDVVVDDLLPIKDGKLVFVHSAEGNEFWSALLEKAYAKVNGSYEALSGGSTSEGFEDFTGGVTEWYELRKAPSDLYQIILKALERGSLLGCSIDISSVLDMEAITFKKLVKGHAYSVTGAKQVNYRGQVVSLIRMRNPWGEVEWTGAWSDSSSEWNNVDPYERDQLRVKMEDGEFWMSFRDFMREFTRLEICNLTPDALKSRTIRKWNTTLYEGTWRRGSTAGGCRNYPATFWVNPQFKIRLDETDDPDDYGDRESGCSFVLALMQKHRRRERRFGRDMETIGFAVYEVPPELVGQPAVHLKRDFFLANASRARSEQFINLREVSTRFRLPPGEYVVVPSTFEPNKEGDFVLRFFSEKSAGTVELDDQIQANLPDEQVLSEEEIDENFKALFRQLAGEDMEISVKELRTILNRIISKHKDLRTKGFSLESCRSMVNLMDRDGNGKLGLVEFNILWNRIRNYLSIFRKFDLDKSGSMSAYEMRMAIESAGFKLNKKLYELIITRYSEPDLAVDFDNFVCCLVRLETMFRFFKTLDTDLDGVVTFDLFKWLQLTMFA


Key:
[1] = target: T1, Calpain-1 catalytic subunit (Homo sapiens); assay: Rate of catalysis as a measure of ability to serve as substrate of Calpain
[2] = Ratio of rate of catalysis to Michaelis-Menten constant was determined
[3] = target: T1, Calpain-1 catalytic subunit (Homo sapiens); assay: Compound was tested for apparent second order rate constant for inhibition of calpain I in an endpoint (non-continuous) calpain assay
Calpain 1 (Homo sapiens) = Calpain 1 (Homo sapiens) (UniProt P04632+P07384); assay: Apparent second order rate constant for inhibition of calpain-1 by fluorogenic assay.; assay type: protein-complex assay
Calpain 1 = Calpain 1 (Homo sapiens, UniProt P07384); assay: Inhibition of Calpain 1 by [3H]acetyl-casein assay; assay type: protein-complex assay
[4] = substrate: Cc1cc(=O)oc2cc(NC(=O)[C@@H](Cc3ccc(O)cc3)NC(=O)[C@H](NC(=O)[C@H](CC(C)C)NC(=O)[C@H](CC(C)C)NC(=O)CCC(=O)O)C(C)C)ccc12; assay: (§1) Michaelis-Menten kinetics value as a measure of ability to serve as substrate of Calpain
[5] = substrate: Cc1cc(=O)oc2cc(NC(=O)[C@@H](CCCCN)NC(=O)[C@H](CC(C)C)NC(=O)[C@@H](NC(=O)OC(C)(C)C)C(C)C)ccc12; assay: as §1
[6] = substrate: Cc1cc(=O)oc2cc(NC(=O)[C@H](CCCN=C(N)N)NC(=O)[C@H](CC(C)C)NC(=O)OCc3ccccc3)ccc12; assay: as §1
[7] = substrate: Cc1cc(=O)oc2cc(NC(=O)[C@H](NC(=O)[C@H](CC(C)C)NC(=O)[C@H](CC(C)C)NC(=O)CCC(=O)O)C(C)C)ccc12; assay: as §1
[8] = substrate: COc1ccc2cccc(NC(=O)[C@@H](CCCN=C(N)N)NC(=O)[C@H](CC(C)C)NC(=O)[C@@H](NC(=O)OCc3ccccc3)C(C)C)c2c1; assay: as §1
[9] = substrate: CC(C)C[C@H](NC(=O)OCc1ccccc1)C(=O)N[C@@H](CCCN=C(N)N)C(=O)Nc1ccc2c(C(F)(F)F)cc(=O)oc2c1; assay: as §1
[10] = substrate: COc1ccc2cccc(NC(=O)[C@H](CCCN=C(N)N)NC(=O)[C@H](CC(C)C)NC(=O)OCc3ccccc3)c2c1; assay: as §1

Chain of Calpain 1 (P04632 whole entry, one chain of several): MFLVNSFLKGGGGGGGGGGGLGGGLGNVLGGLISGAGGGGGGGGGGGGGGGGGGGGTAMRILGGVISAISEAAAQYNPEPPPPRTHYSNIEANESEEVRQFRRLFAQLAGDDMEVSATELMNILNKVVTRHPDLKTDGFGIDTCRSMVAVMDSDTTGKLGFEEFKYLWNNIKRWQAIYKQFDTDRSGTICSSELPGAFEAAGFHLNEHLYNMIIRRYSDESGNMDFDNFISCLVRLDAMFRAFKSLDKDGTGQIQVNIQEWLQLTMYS

Molecule	k cat [1] [s⁻¹]	Ratio [2] [M⁻¹ s⁻¹]	further results
CC(C)C[C@H](NC(=O)[C@H]1O[C@@H]1C(=O)O)C(=O)NCCCCN=C(N)N			k obs / 1 [3]: 7500 M⁻¹ s⁻¹; k obs / 1 (Calpain 1 (Homo sapiens)): 2500 M⁻¹ s⁻¹
Cc1cc(=O)oc2cc(NC(=O)[C@H](NC(=O)[C@H](CC(C)C)NC(=O)[C@H](CC(C)C)NC(=O)CCC(=O)O)C(C)C)ccc12	0.29	141	
Cc1cc(=O)oc2cc(NC(=O)[C@@H](CCCCN)NC(=O)[C@H](CC(C)C)NC(=O)[C@@H](NC(=O)OC(C)(C)C)C(C)C)ccc12	0.49	83	
Cc1cc(=O)oc2cc(NC(=O)[C@@H](Cc3ccc(O)cc3)NC(=O)[C@H](NC(=O)[C@H](CC(C)C)NC(=O)[C@H](CC(C)C)NC(=O)CCC(=O)O)C(C)C)ccc12	0.42	262	
CC(C)[C@H](NC(=O)OCc1ccccc1)C(=O)N[C@H](C=O)Cc1ccc(O)cc1 (Cbz-Val-Tyr-aldehyde)			IC50 (Calpain 1): 25 nM
Calpain-1 catalytic subunit (Homo sapiens), P07384 (protein) MSEEIITPVYCTGVSAQVQKQRARELGLGRHENAIKYLGQDYEQLRVRCLQSGTLFRDEAFPPVPQSLGYKDLGPNSSKTYGIKWKRPTELLSNPQFIVDGATRTDICQGALGDCWLLAAIASLTLNDTLLHRVVPHGQSFQNGYAGIFHFQLWQFGEWVDVVVDDLLPIKDGKLVFVHSAEGNEFWSALLEKAYAKVNGSYEALSGGSTSEGFEDFTGGVTEWYELRKAPSDLYQIILKALERGSLLGCSIDISSVLDMEAITFKKLVKGHAYSVTGAKQVNYRGQVVSLIRMRNPWGEVEWTGAWSDSSSEWNNVDPYERDQLRVKMEDGEFWMSFRDFMREFTRLEICNLTPDALKSRTIRKWNTTLYEGTWRRGSTAGGCRNYPATFWVNPQFKIRLDETDDPDDYGDRESGCSFVLALMQKHRRRERRFGRDMETIGFAVYEVPPELVGQPAVHLKRDFFLANASRARSEQFINLREVSTRFRLPPGEYVVVPSTFEPNKEGDFVLRFFSEKSAGTVELDDQIQANLPDEQVLSEEEIDENFKALFRQLAGEDMEISVKELRTILNRIISKHKDLRTKGFSLESCRSMVNLMDRDGNGKLGLVEFNILWNRIRNYLSIFRKFDLDKSGSMSAYEMRMAIESAGFKLNKKLYELIITRYSEPDLAVDFDNFVCCLVRLETMFRFFKTLDTDLDGVVTFDLFKWLQLTMFA			Km [4]: 160 µM; Km [5]: 5900 µM; Km [6]: 190 µM; Km [7]: 200 µM; Km [8]: 100 µM; Km [9]: 460 µM; Km [10]: 370 µM

Further lines, with some results ahead:

k cat [1] [s⁻¹]	Ratio [2] [M⁻¹ s⁻¹]	Molecule	further results
0.52	1400	COc1ccc2cccc(NC(=O)[C@H](CCCN=C(N)N)NC(=O)[C@H](CC(C)C)NC(=O)OCc3ccccc3)c2c1	
0.07	153	CC(C)C[C@H](NC(=O)OCc1ccccc1)C(=O)N[C@@H](CCCN=C(N)N)C(=O)Nc1ccc2c(C(F)(F)F)cc(=O)oc2c1	
0.02	105	Cc1cc(=O)oc2cc(NC(=O)[C@H](CCCN=C(N)N)NC(=O)[C@H](CC(C)C)NC(=O)OCc3ccccc3)ccc12	
